Results on 7 compounds are retold here after PubChem BioAssay (NCI).

Test systems include SF-539 CNS; OVCAR-4 ovarian; EKVX NSCLC; DU-145 prostate; SK-MEL-2 melanoma; OVCAR-8 ovarian; NCI-H23 lung; ACHN renal; OVCAR-3 ovarian; UACC-257 melanoma; SF-268 CNS; CAKI-1 renal; IGROV1 ovarian; SK-MEL-28 melanoma; UO-31 renal; HL-60(TB) leukemia; LOX IMVI melanoma; NCI-H460 lung; SNB-75 CNS.
Assay in all cases: NCI tumour cell line growth inhibition, 48 h

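Tested at 5 concentrations; 48 h exposure; 96-well plates; endpoints linearly interpolated, else capped at highest concentration. TGI denotes the concentration required for complete inhibition of growth.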 Bounds are passed on as bounds.

`c1cc(Sc2nc(Sc3ccncc3)nc(Sc3ccncc3)n2)ccn1`: the TGI with SF-539 CNS, in the assay on OVCAR-4 ovarian, in the assay with EKVX NSCLC, with DU-145 prostate, in the assay with SK-MEL-2 melanoma and in the assay with OVCAR-8 ovarian was over 100 µM throughout. The TGI with NCI-H23 lung, with ACHN renal, in the assay on OVCAR-3 ovarian, in the assay on UACC-257 melanoma, with SF-268 CNS and with CAKI-1 renal was over 100 µM each time. Moreover, the TGI in the assay on IGROV1 ovarian, in the assay with SK-MEL-28 melanoma, in the assay on UO-31 renal, with HL-60(TB) leukemia, in the assay with LOX IMVI melanoma and in the assay with NCI-H460 lung was over 100 µM in each case.

As to `CC(OC(C)(C)C)[C@H](NC(=O)OC(C)(C)C)C(=O)O` (stereo partly specified), the TGI in the assay on SF-539 CNS, with OVCAR-4 ovarian, with EKVX NSCLC, in the assay on DU-145 prostate, in the assay on OVCAR-8 ovarian and in the assay on NCI-H23 lung was over 100 µM in each case. Also, the TGI in the assay with ACHN renal, with OVCAR-3 ovarian, with UACC-257 melanoma, with SF-268 CNS, with CAKI-1 renal and in the assay on IGROV1 ovarian was over 100 µM each time. The TGI in the assay on UO-31 renal, in the assay with HL-60(TB) leukemia, with LOX IMVI melanoma and with NCI-H460 lung was over 100 µM throughout.

As for `Cc1ccc2ccccc2c1NC1=NCCO1`, the TGI in the assay on SF-539 CNS, with OVCAR-4 ovarian, in the assay with EKVX NSCLC, with DU-145 prostate, with OVCAR-8 ovarian and in the assay with NCI-H23 lung was over 100 µM in each case. Moreover, the TGI in the assay on ACHN renal, with SNB-75 CNS, in the assay on UACC-257 melanoma, in the assay with SF-268 CNS, with IGROV1 ovarian and in the assay on SK-MEL-28 melanoma was over 100 µM each time. The TGI with UO-31 renal, with HL-60(TB) leukemia and with NCI-H460 lung was over 100 µM each time.

For `Oc1ccccc1/C=N/Nc1nc(N/N=C/c2ccccc2O)nc(N/N=C/c2ccccc2O)n1`, the TGI in the assay on SF-539 CNS, in the assay on OVCAR-4 ovarian, with EKVX NSCLC, in the assay with DU-145 prostate, with SK-MEL-2 melanoma and in the assay with OVCAR-8 ovarian was over 100 µM each time. In addition, the TGI in the assay with NCI-H23 lung, with ACHN renal, with OVCAR-3 ovarian, in the assay with UACC-257 melanoma, in the assay with SF-268 CNS and in the assay on CAKI-1 renal was over 100 µM throughout. The TGI in the assay with IGROV1 ovarian, with SK-MEL-28 melanoma, with UO-31 renal, with HL-60(TB) leukemia, with LOX IMVI melanoma and with NCI-H460 lung was over 100 µM throughout.

For the compound `O=S1CCS(=O)CCS(=O)CC1` (stereo unspecified), the TGI in the assay with SF-539 CNS, in the assay on OVCAR-4 ovarian, in the assay with EKVX NSCLC, with DU-145 prostate, with OVCAR-8 ovarian and in the assay with NCI-H23 lung was over 100 µM in each case. Further, the TGI in the assay on SNB-75 CNS, in the assay with OVCAR-3 ovarian, with UACC-257 melanoma, in the assay on SF-268 CNS, with IGROV1 ovarian and in the assay with SK-MEL-28 melanoma was over 100 µM throughout. Also, the TGI with UO-31 renal, in the assay on HL-60(TB) leukemia, in the assay on LOX IMVI melanoma and in the assay on NCI-H460 lung was over 100 µM each time.

`C=C(C)C1Cc2c(cc(O)c3c(=O)c4c(oc23)C(O)Oc2cc(OC)c(OC)cc2-4)O1` (stereo unspecified): the TGI in the assay on SF-539 CNS, in the assay on OVCAR-4 ovarian, in the assay on EKVX NSCLC, in the assay on DU-145 prostate, in the assay with OVCAR-8 ovarian and in the assay with NCI-H23 lung was over 10 µM throughout. Also, the TGI in the assay with ACHN renal, in the assay with OVCAR-3 ovarian, with UACC-257 melanoma, in the assay with SF-268 CNS, in the assay on CAKI-1 renal and with IGROV1 ovarian was over 10 µM each time. In addition, the TGI in the assay on SK-MEL-28 melanoma, in the assay with UO-31 renal, with HL-60(TB) leukemia and with NCI-H460 lung was over 10 µM each time.

As to `CC(C)=NN/C(=N\S(=O)(=O)c1ccc(C)cc1)Nc1ccc(Cl)cc1`, the TGI in the assay with OVCAR-4 ovarian, with EKVX NSCLC, in the assay on DU-145 prostate, in the assay on SK-MEL-2 melanoma, in the assay with OVCAR-8 ovarian and in the assay on NCI-H23 lung was over 100 µM each time. Moreover, the TGI with ACHN renal, in the assay on OVCAR-3 ovarian, in the assay on UACC-257 melanoma, with SF-268 CNS, in the assay with CAKI-1 renal and in the assay with IGROV1 ovarian was over 100 µM throughout. Also, the TGI with SK-MEL-28 melanoma, in the assay with UO-31 renal, with HL-60(TB) leukemia, with LOX IMVI melanoma and in the assay on NCI-H460 lung was over 100 µM in each case.
